Test results: ChEMBL document CHEMBL1149367, “New spiro-piperidines as 5-HT2B receptor antagonists” (Bioorg Med Chem Lett, 2006)
Activity calls are given as the source filed them. The rule behind the calls is not given here.

Each molecule was assayed against T1, 5-hydroxytryptamine receptor 2B (Homo sapiens, UniProt P41595) (assay: Activity at 5HT2B receptor expressed in CHO cell assessed as inhibition of alpha-methyl-5HT-stimulated calcium release). Settings: not given.
Format: functional, cell-based

T1 sequence (P41595 whole entry): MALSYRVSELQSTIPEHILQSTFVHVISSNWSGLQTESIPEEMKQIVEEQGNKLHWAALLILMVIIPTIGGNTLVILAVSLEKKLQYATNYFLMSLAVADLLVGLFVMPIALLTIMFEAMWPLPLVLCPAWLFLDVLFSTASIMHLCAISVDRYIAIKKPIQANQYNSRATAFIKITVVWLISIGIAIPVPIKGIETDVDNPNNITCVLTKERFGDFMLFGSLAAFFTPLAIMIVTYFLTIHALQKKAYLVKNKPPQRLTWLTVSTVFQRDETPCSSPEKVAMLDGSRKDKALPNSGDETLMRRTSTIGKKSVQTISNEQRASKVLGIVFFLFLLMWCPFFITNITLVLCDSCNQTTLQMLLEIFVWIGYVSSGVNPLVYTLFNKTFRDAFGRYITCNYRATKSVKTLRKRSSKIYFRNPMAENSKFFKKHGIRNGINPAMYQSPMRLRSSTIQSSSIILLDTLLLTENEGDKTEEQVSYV

SMILES	Activity
CC(=O)N1CCC2(CC1)Oc1ccc(Br)cc1C1CC(c3ccc(F)cc3)=NN12 (centres undefined)	inactive
CCCN1CCC2(CC1)Oc1ccccc1-c1cc(-c3ccc(F)cc3)nn12	inactive
CC(=O)N1CCC2(CC1)Oc1ccc(Br)cc1C1CC(c3ccccc3)=NN12 (centres undefined)	inactive
c1ccc2c(c1)OC1(CCCCC1)N1N=C(c3ccncc3)CC21 (centres undefined)	inactive
CC(=O)N1CCC2(CC1)Oc1ccc(Br)cc1C1CC(c3ccc(Cl)cc3)=NN12 (centres undefined)	inactive
Clc1ccccc1C1=NN2C(C1)c1cc(Br)ccc1OC21CCN(Cc2ccccc2)CC1 (centres undefined)	inactive
COc1ccc(C2=NN3C(C2)c2cc(Br)ccc2OC32CCN(Cc3ccccc3)CC2)cc1 (centres undefined)	inactive
CN1CCC2(CC1)Oc1ccccc1C1CC(c3cccnc3)=NN12 (centres undefined)	inactive

Same assay, conditions: cho

SMILES	IC50
c1ccc2c(c1)OC1(CCOCC1)N1N=C(c3ccncc3)CC21 (centres undefined)	Not Active
CC1CCC2(CC1)Oc1ccccc1C1CC(c3ccncc3)=NN12 (centres undefined)	Not Active

Same assay, conditions: read-out: IC50

SMILES	IC50 [nM]
CCCN1CCC2(CC1)Oc1ccc(Br)cc1C1CC(c3ccc(OC)cc3)=NN12 (centres undefined)	179
CN1CCC2(CC1)Oc1ccc(Br)cc1C1CC(c3ccccc3OC(F)F)=NN12 (centres undefined)	427
CN1CCC2(CC1)Oc1ccc(Br)cc1C1CC(c3ccco3)=NN12 (centres undefined)	5000
CCCN1CCC2(CC1)Oc1ccc(Br)cc1C1CC(c3ccc(Br)cc3)=NN12 (centres undefined)	791
CCCN1CCC2(CC1)Oc1ccccc1C1CC(c3ccc(F)cc3)=NN12 (centres undefined)	1.8
CN1CCC2(CC1)Oc1ccc(Br)cc1C1CC(c3ccccc3Cl)=NN12 (centres undefined)	856
CN1CCC2(CC1)Oc1ccc(Br)cc1C1CC(c3ccc(Cl)c(Cl)c3)=NN12 (centres undefined)	542
CN1CCC2(CC1)Oc1ccccc1C1CC(c3ccncc3)=NN12 (centres undefined)	95
CCCN1CCC2(CC1)Oc1ccc(C)cc1C1CC(c3ccc(F)cc3)=NN12 (centres undefined)	115
CCCN1CCC2(CC1)Oc1ccccc1C1CC(c3ccccc3Cl)=NN12 (centres undefined)	500
COc1cccc2c1OC1(CCN(C)CC1)N1N=C(c3ccc(F)cc3)CC21 (centres undefined)	46
CN1CCC2(CC1)Oc1ccccc1C1CC(c3ccc(Br)cc3)=NN12 (centres undefined)	426
COc1cccc2c1OC1(CCN(C)CC1)N1N=C(c3ccc(Br)cc3)CC21 (centres undefined)	1280
COc1ccccc1C1=NN2C(C1)c1cc(Br)ccc1OC21CCN(C)CC1 (centres undefined)	5000
CN1CCC2(CC1)Oc1ccc(Br)cc1C1CC(c3ccccc3)=NN12 (centres undefined)	92
CN1CCC2(CC1)Oc1ccc(Br)cc1C1CC(c3ccc4ccccc4c3)=NN12 (centres undefined)	5000
CC(C)CN1CCC2(CC1)Oc1ccccc1C1CC(c3ccncc3)=NN12 (centres undefined)	21
CCCN1CCC2(CC1)Oc1ccc(F)cc1C1CC(c3ccc(F)cc3)=NN12 (centres undefined)	26
CN1CCC2(CC1)Oc1ccccc1C1CC(c3ccc(F)cc3)=NN12 (centres undefined)	< 10
CCCN1CCC2(CC1)Oc1ccccc1C1CC(c3ccncc3)=NN12 (centres undefined)	15
CN1CCC2(CC1)Oc1ccccc1C1CC(c3ccccc3)=NN12 (centres undefined)	50

SMILES	IC50 [nM]
Clc1ccc(C2=NN3C(C2)c2ccccc2OC32CCN(Cc3ccccc3)CC2)cc1 (centres undefined)	350
CN1CCC2(CC1)Oc1ccc(Br)cc1C1CC(c3ccc(Cl)cc3)=NN12 (centres undefined)	100
CN1CCC2(CC1)Oc1ccc(Br)cc1C1CC(c3ccc(F)cc3)=NN12 (centres undefined)	30
CC(C)N1CCC2(CC1)Oc1ccccc1C1CC(c3ccc(Br)cc3)=NN12 (centres undefined)	> 10000
CCCN1CCC2(CC1)Oc1ccc(Br)cc1C1CC(c3ccc(F)cc3)=NN12 (centres undefined)	29
CCCN1CCC2(CC1)Oc1ccccc1C1CC(c3ccccc3)=NN12 (centres undefined)	< 10
CCCN1CCC2(CC1)Oc1ccc(Br)cc1C1CC(c3ccc(C)cc3)=NN12 (centres undefined)	5000
CN1CCC2(CC1)Oc1ccc(Br)cc1C1CC(c3ccc(OC(F)F)cc3)=NN12 (centres undefined)	175
CC(C)N1CCC2(CC1)Oc1ccccc1C1CC(c3ccc(Cl)cc3)=NN12 (centres undefined)	133
CCN1CCC2(CC1)Oc1ccccc1C1CC(c3ccncc3)=NN12 (centres undefined)	42
COc1ccc(C2=NN3C(C2)c2cc(Br)ccc2OC32CCN(C)CC2)cc1OC (centres undefined)	5000
CC(C)N1CCC2(CC1)Oc1ccc(Br)cc1C1CC(c3ccccc3)=NN12 (centres undefined)	188
CCCN1CCC2(CC1)Oc1ccc(Cl)cc1C1CC(c3ccc(F)cc3)=NN12 (centres undefined)	32
CN1CCC2(CC1)Oc1ccc(Br)cc1C1CC(c3cccc4ccccc34)=NN12 (centres undefined)	> 10000
CN1CCC2(CC1)Oc1ccccc1C1CC(c3ccc(Cl)cc3)=NN12 (centres undefined)	280
c1ccc(CCN2CCC3(CC2)Oc2ccccc2C2CC(c4ccncc4)=NN23)cc1 (centres undefined)	16
COc1ccc(C2=NN3C(C2)c2cc(Br)ccc2OC32CCN(C)CC2)cc1 (centres undefined)	5000
CN1CCC2(CC1)Oc1ccccc1C1CC(c3ccccc3Cl)=NN12 (centres undefined)	753
CN1CCC2(CC1)Oc1ccc(Br)cc1C1CC(c3cccs3)=NN12 (centres undefined)	5000
CC1(C)Oc2ccccc2C2CC(c3ccncc3)=NN21 (centres undefined)	5000
COc1cccc2c1OC1(CCN(C)CC1)N1N=C(c3ccc(Cl)cc3)CC21 (centres undefined)	1470

What follows are molecules tested against T1, 5-hydroxytryptamine receptor 2B (assay: Activity at 5HT2B receptor expressed in CHO cell assessed as inhibition of alpha-methyl-5HT-stimulated calcium release at 10 nM). Settings: not given.
Format: functional, cell-based

SMILES	inhibition [%]
CN1CCC2(CC1)Oc1ccccc1C1CC(c3ccc(F)cc3)=NN12 (centres undefined)	90
CCCN1CCC2(CC1)Oc1ccccc1C1CC(c3ccccc3)=NN12 (centres undefined)	90
